We go through eight molecules from ChEMBL document CHEMBL4431318, “Design, synthesis and biological evaluation of novel 5-fluoro-1H-benzimidazole-4-carboxamide derivatives as potent PARP-1 inhibitors” (Bioorg Med Chem Lett, 2016).

Experiment [1] deals with HCT-116. Put plainly: Cytotoxicity against human HCT116 cells by SRB assay. Type of experiment: functional, cell-based. On the technique in general: Sulforhodamine B stains cellular protein and so reports cell mass.
The target in experiment [2] is T1, Poly [ADP-ribose] polymerase 1 (Homo sapiens, UniProt P09874). The experiment is described as follows: Inhibition of PARP1 (unknown origin).
T1 sequence (P09874 whole entry): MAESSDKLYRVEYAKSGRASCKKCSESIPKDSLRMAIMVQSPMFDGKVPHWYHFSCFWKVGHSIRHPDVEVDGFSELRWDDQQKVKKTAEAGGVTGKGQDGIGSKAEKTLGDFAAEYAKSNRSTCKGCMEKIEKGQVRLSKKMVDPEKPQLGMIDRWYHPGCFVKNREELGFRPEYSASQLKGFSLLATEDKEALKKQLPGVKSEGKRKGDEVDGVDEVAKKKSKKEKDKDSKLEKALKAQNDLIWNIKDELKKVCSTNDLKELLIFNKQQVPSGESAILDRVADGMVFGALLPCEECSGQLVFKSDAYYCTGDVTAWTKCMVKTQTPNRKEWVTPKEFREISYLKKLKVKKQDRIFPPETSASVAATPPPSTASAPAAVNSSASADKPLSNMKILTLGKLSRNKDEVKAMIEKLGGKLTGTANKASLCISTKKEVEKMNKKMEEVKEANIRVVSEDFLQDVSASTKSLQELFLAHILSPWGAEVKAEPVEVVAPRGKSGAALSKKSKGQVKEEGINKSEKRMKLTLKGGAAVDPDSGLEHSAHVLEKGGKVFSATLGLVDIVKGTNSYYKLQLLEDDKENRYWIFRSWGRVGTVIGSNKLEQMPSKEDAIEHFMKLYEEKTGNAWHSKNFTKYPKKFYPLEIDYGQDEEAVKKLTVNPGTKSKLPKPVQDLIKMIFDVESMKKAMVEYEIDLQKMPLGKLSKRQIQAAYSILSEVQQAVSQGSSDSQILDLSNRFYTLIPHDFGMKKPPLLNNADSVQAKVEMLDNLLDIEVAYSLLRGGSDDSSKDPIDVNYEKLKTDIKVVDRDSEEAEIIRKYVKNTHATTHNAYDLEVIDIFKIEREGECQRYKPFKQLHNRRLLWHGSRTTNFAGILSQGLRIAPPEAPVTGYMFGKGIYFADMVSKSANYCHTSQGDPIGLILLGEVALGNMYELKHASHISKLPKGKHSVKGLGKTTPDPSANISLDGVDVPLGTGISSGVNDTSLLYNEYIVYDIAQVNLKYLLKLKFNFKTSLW
Experiment [3] relates to HCT-116. Put plainly: Potency index, ratio of IC50 for veliparib to IC50 for test compound against human HCT116 cells. It counts as functional.
Experiment [4] deals with T1, Poly [ADP-ribose] polymerase 1. The following applies: A549.
Description: Inhibition of PARP1 in human A549 cells assessed as potentiation of TMZ-mediated cytotoxicity at 0.5 uM by SRB assay

One may read the IC50 as the concentration needed to halve the response being measured. A high value points to lower potency. As to `CCCN1CCC(c2nc3c(C(N)=O)c(F)ccc3[nH]2)CC1`, the IC50 stood at 65500 nM with HCT-116 [1] (Homo sapiens, HCT-116) and 29.8 nM in experiment [2].

Turning to `NC(=O)c1c(F)ccc2[nH]c(C3CCNCC3)nc12`, the IC50 in the experiment on HCT-116 [1] (Homo sapiens, HCT-116) is above 100000 nM; in experiment [2], 39.1 nM.

`NC(=O)c1c(F)ccc2[nH]c(-c3ccc(N4CCOCC4)cc3)nc12`: the IC50 in the experiment with HCT-116 [1] (Homo sapiens, HCT-116) stood at 27000 nM; in experiment [2], 21.8 nM. Further, in the experiment on HCT-116 [3], the “Ratio IC50” value is reported as 2.3.

For the molecule `CN1CCC[C@@]1(C)c1nc2c(C(N)=O)c(F)ccc2[nH]1`, the IC50 with HCT-116 [1] (Homo sapiens, HCT-116) is above 100000 nM; in experiment [2], 21.7 nM.

For `NC(=O)c1c(F)ccc2[nH]c(-c3ccc(N4CCNCC4)cc3)nc12`, the IC50 in the experiment with HCT-116 [1] (Homo sapiens, HCT-116) worked out at 7400 nM; in experiment [2] it was 43.7 nM. For the same molecule, the “Ratio IC50” value with HCT-116 [3] amounted to 8.6.

In experiment [2], `NC(=O)c1c(F)ccc2[nH]c(C3CCCNC3)nc12` (configuration not stated) displayed an IC50 of 25.8 nM.

`C[C@]1(c2nc3c(C(N)=O)c(F)ccc3[nH]2)CCCN1`: the IC50 is above 100000 nM with HCT-116 [1] (Homo sapiens, HCT-116) and 5.7 nM in experiment [2].

The molecule `C[C@]1(c2nc3c(C(N)=O)cccc3[nH]2)CCCN1` [VELIPARIB] gave an IC50 with HCT-116 [1] (hct-116) of 64000 nM. Also, in experiment [4], the PF50 turned out to be 2.2.
